Laboratory results from patent US20090012152A1, “Use of Tetramic Acid Derivatives for Controlling Insects from the Genus of the Plane Lice (Sternorrhyncha)” (Bayer CropScience Aktiengesellschaft, priority 2005, published 2009).

Assays:
Format in all cases: in vivo
Bemisia tabaci = assay: Example 32: bell peppers treated against Bemisia tabaci; conditions: larvae on leaves, % a.i.: imidacloprid 0.02, I-9, I-2, I-11 0.0144; for Kill (%) 7 d: 7 d after second treatment; for Kill (%) 14 d: 14 d after second treatment; for Kill (%) 22 d: 22 d after second treatment
Experimental: In three replications, plots of a size of 10 m^2 with bell peppers of the cultivar “Italiano” are treated against Bemisia tabaci. The application is carried out using a motor-operated knapsack sprayer. Here, the active compounds Example (I-9) (240 SC), Example (I-2) (60 SC) and Example (I-11) (60 SC) and the commercial standard imidacloprid (200 SL) are applied at the stated application rates. Three applications at an interval of 14 or 15 days are carried out, at an application rate of 1000 or 1100 l of water/ha.
Evaluation is carried out 7, 14 and 22 days after the second treatment by rating the kill of the animals (larvae) on the leaves.

Aphis pomi = assay: Example 41: apple trees treated against Aphis pomi (Henderson and Tilton); conditions: live animals on shoots, % a.i.: imidacloprid 0.007, I-9 0.0144, I-2 0.0144; for Effect (%) 7 d: 7 d after treatment; for Effect (%) 14 d: 14 d after treatment
Experimental: In three replications, three about 8-year-old apple trees of the cultivar “Golden Delicious” are treated eradicatively against Dysaphis plantaginea and Aphis pomi. The application is carried out using a motor-operated barrow-mounted sprayer. Here, the active compounds Example (I-9) (240 SC) and Example (I-2) (240 SC) in the stated amount are tested against the commercial standard imidacloprid (200 SL), at the stated application rate. The application rate is 1200 l of water/ha.
Evaluation is carried out before and also 7 d and 14 d after the treatment by counting the live animals on the shoots. The efficacy is then calculated by calculating the effect on the population in percent according to Henderson and Tilton.

Aphis fabae = assay: Example 51: broad beans treated against Aphis fabae; conditions: nymphs on leaves, g a.i./ha: Pirimor 250, I-9 36, I-2 36, I-4 42; for Kill (%) 7 d: 7 d after treatment; for Kill (%) 15 d: 15 d after treatment
Experimental: In three replications, plots of a size of 10 m^2 with broad beans of the cultivar “Fruhe Weisskeimige” are treated against Aphis fabae. The application is carried out using a knapsack sprayer operated with pressurized air. Here, the active compounds Example (I-9) (240 SC), Example (I-2) (240 SC) and Example (I-4) (240 SC), in a tank mix with 0.2% of rapeseed oil methyl ester (500 EW), and the commercial standard Pirimor (50 WG) are tested at the stated application rates. Application is carried out once. The application rate is 500 l of water/ha.
Evaluation is carried out 7 and 15 days after the treatment by rating the kill of the nymphs on the leaves.

Psylla piri = assay: Example 5: pear trees treated against Psylla piri; conditions: nymphs on shoots, g a.i./ha/m crown height: amitraz 266, I-4 72
Experimental: In three replications, pear trees of the cultivar “Williams Christ” are treated against Psylla piri. Application is shortly before the eggs hatch. The application is carried out using a barrow-mounted sprayer operated with pressurized air. Here, the active compound Example (I-4) (240 SC) is tested in a tank mix with 0.1% a.i. rapeseed oil methyl ester (500 EW) at the stated amount against the standard amitraz (200 EC) at the stated amount. The application rate is 1000 l of water/ha.
Evaluation is carried out 7, 14 and 21 days after the treatment by rating the kill of the nymphs on the shoots.

Saissetia oleae = assay: Example 14: orange trees (Navelina) treated against Saissetia oleae; conditions: 120 d after treatment, kill on branches, % a.i.: Dursban 0.096, I-4 0.012, I-9 0.0054, pyriproxyfen 0.005
Experimental: In three replications, orange trees of the cultivar “Navelina” are treated against Saissetia oleae. Here, the active compounds Example (I-4) (240 SC) and Example (I-9) (240 SC) in a tank mix with 0.1% of rapeseed oil methyl ester (500 EW) at the stated application rate are tested against the commercial standards Dursban (480 EC) and pyriproxyfen (100 EC) at the stated application rate. The application is carried out using a motor-operated knapsack sprayer. The application rate is 3200 l of water/ha.
Evaluation is carried out 120 days after the treatment by rating the kill of the animals on the branches.

Aonidiella aurantii = assay: Example 16: grapefruit tree treated against Aonidiella aurantii; conditions: on fruits, per metre crown height: Dursban 6.01 pounds/acre, I-4 72 g/ha
Experimental: In four replications, an about 10-year-old grapefruit tree of the cultivar “Rio Red” is treated against Aonidiella aurantii. The application is carried out using a motor-operated barrow-mounted sprayer. Here, the active compound Example (I-4) (240 SC) and the commercial standard Dursban (480 EC) are tested at the stated application rates. The amount of spray liquor is 5.8 gallons per tree.
Evaluation is carried out 28, 59 and 90 days after the treatment by rating the kill of the animals on the fruits.

[1] = test system: Pseudaulacaspis prunicola; assay: Example 23: Japanese apricot trees treated against Pseudaulacaspis prunicola; conditions: 58 days after treatment, nymphs on shoots, % a.i.: Supracide EC 0.04, I-4 0.0075
Experimental: In six replications, about 16-year-old Japanese apricot trees of the cultivar “Shirokag” are treated against Pseudaulacaspis prunicola. The application is carried out using a sprayer. Here, the active compound Example (I-4) (200 SC) is tested against the commercial standard Supracide EC (400 EC), at the stated application rates. The application rate is 1500 l of water/ha.
Evaluation is carried out 58 days after the treatment by rating the kill of the nymphs on the shoots.

Myzus persicae = assay: Example 48: aubergine plants treated against Myzus persicae; conditions: on leaves, rate (g of a.i./ha): pymethrozine 0.0125, I-4 0.024
Experimental: In three replications, four aubergine plants (age about 7 months) of the cultivar “Hayabusa” are treated against Myzus persicae. The application is carried out using a motor-operated knapsack sprayer. Here, the active compound Example (I-4) (240 SC), in a tank mix with 0.1% a.i. of rapeseed oil methyl ester (500 EW), and the commercial standard pymethrozine (25 WP) are tested at the stated application rates. The application rate is 3000 l of water/ha.
Evaluation is carried out 7, 14, 21 and 29 days after the treatment by rating the kill of the animals on the leaves.

**Q.** How did the “Kill (%) 7 d” value (Bemisia tabaci) turn out when `CCOC(=O)OC1=C(c2cc(C)ccc2Br)C(=O)NC12CCC(OC)CC2` (centres unmarked) [Example (I-2)] was run?
**A.** The value was 84.7%.

**Q.** And the “Kill (%) 14 d” value (Bemisia tabaci)?
**A.** Its value is 92.6%.

**Q.** And the “Kill (%) 22 d” value (Bemisia tabaci)?
**A.** Its value is 85.6%.

**Q.** What about the “Effect (%) 7 d” value (Aphis pomi) of the same compound?
**A.** Its value is 99.1%.

**Q.** And the “Effect (%) 14 d” value (Aphis pomi)?
**A.** The value was 97.1%.

**Q.** And the “Kill (%) 7 d” value (Aphis fabae)?
**A.** Its value is 98.6%.

**Q.** What about the “Kill (%) 15 d” value (Aphis fabae) of the same compound?
**A.** The value was 100%.

**Q.** Which results are given for `CCOC(=O)OC1=C(c2cc(C)ccc2C)C(=O)NC12CCC(OC)CC2` (centres unmarked) [Example (I-4)]?
**A.** Kill (%) 7 d (Psylla piri; 7 d after treatment): 100%; Kill (%) 14 d (Psylla piri; 14 d after treatment): 100%; Kill (%) 21 d (Psylla piri; 21 d after treatment): 100%; Effect (%) 120 d (Saissetia oleae): 98%; Kill (%) 28 d (Aonidiella aurantii; 28 d after treatment): 92.7%; Kill (%) 59 d (Aonidiella aurantii; 59 d after treatment): 100%; Kill (%) 90 d (Aonidiella aurantii; 90 d after treatment): 100%; Kill (%) 58 days [1]: 92.3%; Kill (%) 7 d (Myzus persicae; 7 d after treatment): 99.7%; Kill (%) 14 d (Myzus persicae; 14 d after treatment): 99.7%; Kill (%) 21 d (Myzus persicae; 21 d after treatment): 98%; Kill (%) 29 d (Myzus persicae; 29 d after treatment): 97%; Kill (%) 7 d (Aphis fabae): 100%; Kill (%) 15 d (Aphis fabae): 100%

**Q.** With `O=[N+]([O-])NC1=NCCN1Cc1ccc(Cl)nc1` [imidacloprid, reference compound] as the compound, how does the “Kill (%) 7 d” value (Bemisia tabaci) read?
**A.** The value was 75.8%.

**Q.** What about the “Kill (%) 14 d” value (Bemisia tabaci) of the same compound?
**A.** Its value is 67.2%.

**Q.** And the “Kill (%) 22 d” value (Bemisia tabaci)?
**A.** The value was 69.4%.

**Q.** And the “Effect (%) 7 d” value (Aphis pomi)?
**A.** Its value is 99%.

**Q.** What about the “Effect (%) 14 d” value (Aphis pomi) of the same compound?
**A.** Its value is 83.5%.
